Reference: ChEMBL document CHEMBL1131834, “Synthesis and antitumoral activities of marine ent-chromazonarol and related compounds” (Bioorg Med Chem Lett, 1999)

Key:
Assay type in all cases: functional, cell-based
[1] = tested on: SK-MEL-28; assay: Antitumoral activity was assayed against MEL-28 cell line; conditions: Homo sapiens
[2] = tested on: HT-29; assay: Antitumoral activity was assayed against HT-29 cell line; conditions: Homo sapiens
[3] = tested on: A549; assay: Antitumoral activity was assayed against A-549 cell line; conditions: Homo sapiens
[4] = tested on: P388; assay: Antitumoral activity was assayed against P-388 cell line; conditions: Mus musculus

Compound | IC50 [1] [µM] | IC50 [2] [µM] | IC50 [3] [µM] | IC50 [4] [µM]
CC1=CCC2C(C)(C)CCC[C@]2(C)[C@H]1CC1=CC(=O)C=CC1=O (some centres not stated) | 3.2 | 3.2 | 3.2 | 0.8
CC1=CCC2C(C)(C)CCC[C@]2(C)[C@H]1Cc1cc(O)ccc1O (some centres not stated) | 0.79 | 0.79 | 0.79 | 0.16
CC1(C)CCC[C@@]2(C)C1CC[C@@]1(C)Oc3ccc(O)cc3C[C@@H]12 (some centres not stated) | 15.9 | 15.9 | 15.9 | 15.9
